Source: PMC6514978, “Synthesis, Antibacterial Activities, Mode of Action and Acute Toxicity Studies of New Oxazolidinone-Fluoroquinolone Hybrids” (Molecules, 2019)
Converted amounts (≈) assume the structure as drawn.

How the values were obtained:
[1] = system: S. aureus (ATCC29213); experiment: MIC, broth microdilution (CLSI), standard strain; format: cell-based; settings: Staphylococcus aureus
Excerpt: (§1) 6 standard strains and 3 clinical isolates were used to the preliminary evaluation of in vitro antibacterial activities of oxazolidinone-fluoroquinolone hybrids. For the further evaluation of hybrids OBP-4 and OBP-5, 263 clinical isolates including S. aureus (46), S. haemolyticus(32), S. epidermidis (10), E. faecalis (72), E. faecium (47), S. pneumoniae (13), H. parasuis (34), S. suis (9), and 8 resistant strains including MRSA, MRSE, CIP-resistant S. aureus and S. haemolyticus, VAN and quinolone-resistant S. pneumoniae, LZD-resistant E. faecalis, LZD/VAN and quinolone-resistant E. faecium were collected and tested.
(§2) Susceptibility testing of oxazolidinone-fluoroquinolone hybrids against various bacteria was performed by the broth microdilution method as outlined by the Clinical and Laboratory Standards Institute (CLSI). Three types of media, including cation-adjusted Mueller Hinton broth, Haemophilus Test Medium and cation-adjusted Mueller Hinton broth that contained 3%–5% lysed horse blood, were used to culture the corresponding bacteria. All compounds including comparator drugs were dissolved in an appropriate solvent at a concentration of 2.048 mg/mL and then serially diluted two-fold to provide the required concentrations. A final inoculum of 5 × 10^5 CFU/mL was used and plates were read after incubation for 16–24 h at 35 °C. […] Standard quality control strains (ATCC) were included throughout. Each determination was repeated in triplicate.

[2] = system: S. pneumoniae (ATCC49619); experiment: MIC, broth microdilution (CLSI), standard strain; format: cell-based; settings: Streptococcus pneumoniae
Excerpt: as §1, §2

[3] = system: P. Aeruginosa (ATCC27853); experiment: MIC, broth microdilution (CLSI), standard strain; format: cell-based; settings: Pseudomonas aeruginosa; P. Aeruginosa (ATCC27853); read-out: MIC
Excerpt: as §1, §2

[4] = system: E. coli (ATCC25922); experiment: MIC, broth microdilution (CLSI), standard strain; format: cell-based; settings: Escherichia coli; E. coli (ATCC25922); read-out: MIC
Excerpt: as §1, §2

[5] = system: H. influenzae (ATCC49247); experiment: MIC, broth microdilution (CLSI), standard strain; format: cell-based; settings: Haemophilus influenzae
Excerpt: as §1, §2

[6] = system: E. faecalis (ATCC29212); experiment: MIC, broth microdilution (CLSI), standard strain; format: cell-based; settings: Enterococcus faecalis; E. faecalis (ATCC29212); read-out: MIC
Excerpt: as §1, §2

[7] = system: S. aureus (46) clinical isolates; experiment: Susceptibility of clinical isolates (MIC); format: cell-based, Staphylococcus aureus; settings: for Cumulative % of strains inhibited at MIC / No. of strains inhibited at MIC: S. aureus (46)
Summary of the method: (§3)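 Broth microdilution per CLSI in cation-adjusted Mueller Hinton broth, Haemophilus Test Medium, or cation-adjusted MHB with 3%–5% lysed horse blood, as suited to each organism. Final inoculum 5 × 10^5 CFU/mL; plates read after 16–24 h at 35 °C. ATCC QC strains included; triplicate determinations.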

[8] = system: MRSE; experiment: MIC against drug-resistant strain; format: cell-based, S. epidermidis; settings: Staphylococcus epidermidis, read-out: MIC
Summary of the method: as §3

[9] = system: E. faecalis (72) clinical isolates; experiment: Susceptibility of clinical isolates (MIC); format: cell-based, Enterococcus faecalis; settings: for Cumulative % of strains inhibited at MIC / No. of strains inhibited at MIC: E. faecalis (72)
Experimental: as §2, with “All compounds including comparator drugs were dissolved in an appropriate solvent at a concentration of 2.048 mg/mL and then serially diluted two-fold to provide the required concentrations.” left out

[10] = system: S. haemolyticus (32) clinical isolates; experiment: Susceptibility of clinical isolates (MIC); format: cell-based, Staphylococcus haemolyticus
Summary of the method: as §3

[11] = system: MRSA (13B262); experiment: MIC, broth microdilution (CLSI), clinical isolate; format: cell-based; settings: Staphylococcus aureus
Excerpt: as §1, §2

[12] = system: S. agalactiae^R (13B317), levofloxacin-resistant S. agalactiae; experiment: MIC, broth microdilution (CLSI), clinical isolate; format: cell-based; settings: Streptococcus agalactiae; levofloxacin-resistant S. agalactiae (13B317)
Excerpt: as §1, §2

[13] = system: LZD and quinolone-resistant E. faecium; experiment: MIC against drug-resistant strain; format: cell-based; settings: Enterococcus faecium; E. faecium, LZD and quinolone-resistant; read-out: MIC
Summary of the method: as §3

[14] = system: CIP-resistant S. haemolyticus; experiment: MIC against drug-resistant strain; format: cell-based; settings: Staphylococcus haemolyticus; S. haemolyticus, CIP-resistant; read-out: MIC
Summary of the method: as §3

[15] = system: VAN and quinolone-resistant E. faecium; experiment: MIC against drug-resistant strain; format: cell-based; settings: Enterococcus faecium; E. faecium, VAN and quinolone-resistant; read-out: MIC
Summary of the method: as §3

[16] = system: VAN and quinolone-resistant S. pneumoniae; experiment: MIC against drug-resistant strain; format: cell-based; settings: Streptococcus pneumoniae; S. pneumoniae, VAN and quinolone-resistant; read-out: MIC
Summary of the method: as §3

[17] = system: VRE (13B330); experiment: MIC, broth microdilution (CLSI), clinical isolate; format: cell-based, vancomycin-resistant enterococcus; settings: Enterococcus
Excerpt: as §1, §2

[18] = system: LZD-resistant E. faecalis; experiment: microbe, parasite or virus in culture; format: cell-based; settings: Enterococcus faecalis
Summary of the method: as §3

[19] = system: S. pneumoniae (13) clinical isolates; experiment: Susceptibility of clinical isolates (MIC); format: cell-based, Streptococcus pneumoniae; settings: for Cumulative % of strains inhibited at MIC / No. of strains inhibited at MIC: S. pneumoniae (13)
Summary of the method: as §3

[20] = system: E. faecium (47) clinical isolates; experiment: Susceptibility of clinical isolates (MIC); format: cell-based, Enterococcus faecium; settings: for Cumulative % of strains inhibited at MIC / No. of strains inhibited at MIC: E. faecium (47)
Summary of the method: as §3

[21] = Enterococcus faecalis, E. faecalis, 72 clinical isolates
[22] = S. haemolyticus (32), MIC 0.125 µg/mL

CC1Sc2c(C(=O)O)c(=O)c3cc(F)c(N4CCC(O)(COc5ccc(N6C[C@H](CO)OC6=O)cc5F)CC4)cc3n21 (some centres unmarked) [OBP-5]
MIC [1]: 0.25 µg/mL (≈ 0.414 µM) | MIC [2]: 0.062 µg/mL (≈ 0.103 µM) | MIC [3]: 64 µg/mL (≈ 106 µM) | MIC [4]: 4 µg/mL (≈ 6.63 µM) | MIC [5]: 0.25 µg/mL (≈ 0.414 µM) | MIC [6]: 1 µg/mL (≈ 1.66 µM) | Cumulative % of strains inhibited at MIC ([7]; MIC 0.125 µg/mL): 97.8% | No. of strains inhibited at MIC ([7]; MIC 0.125 µg/mL): 3 | Cumulative % of strains inhibited at MIC ([7]; MIC […]): 100.0% | No. of strains inhibited at MIC ([7]; MIC […]): 1 | Cumulative % of strains inhibited at MIC ([7]; MIC ≤[…]): 91.3% | No. of strains inhibited at MIC ([7]; MIC ≤[…]): 42 | MIC50 ([7]; Staphylococcus aureus, S. aureus, 46 clinical isolates, read-out: MIC50): ≤ 0.0625 µg/mL | MIC90 ([7]; Staphylococcus aureus, S. aureus, 46 clinical isolates, read-out: MIC90): ≤ 0.0625 µg/mL | MIC ([7]; Staphylococcus aureus, S. aureus, 46 clinical isolates, read-out: MIC Range): 0.0625 to 0.25 µg/mL (≈ 0.104 to 0.414 µM) | MIC [8]: ≤ 0.0625 µg/mL | Cumulative % of strains inhibited at MIC ([9]; MIC 0.125 µg/mL): 91.7% | No. of strains inhibited at MIC ([9]; MIC 0.125 µg/mL): 49 | Cumulative % of strains inhibited at MIC ([9]; MIC 0.5 µg/mL): 100.0% | No. of strains inhibited at MIC ([9]; MIC 0.5 µg/mL): 1 | Cumulative % of strains inhibited at MIC ([9]; MIC […]): 98.6% | No. of strains inhibited at MIC ([9]; MIC […]): 5 | Cumulative % of strains inhibited at MIC ([9]; MIC ≤[…]): 23.6% | No. of strains inhibited at MIC ([9]; MIC ≤[…]): 17 | fold higher activity than comparator agents ([9]; E. faecalis clinical isolates): 2- to 16 fold | MIC Range ([9]; E. faecalis, 72 clinical isolates): ≤0.0625 to 0.5 µg/mL | MIC50 [9, 21]: 0.125 µg/mL (≈ 0.207 µM) | MIC90 [9, 21]: 0.125 µg/mL (≈ 0.207 µM) | Cumulative % of strains inhibited at MIC [10, 22]: 100.0% | No. of strains inhibited at MIC [10, 22]: 2 | No. of strains inhibited at MIC ([10]; S. haemolyticus (32), MIC ≤[…]): 30 | MIC50 ([10]; Staphylococcus haemolyticus, S. haemolyticus, 32 clinical isolates, read-out: MIC50): ≤ 0.0625 µg/mL | MIC90 ([10]; Staphylococcus haemolyticus, S. haemolyticus, 32 clinical isolates, read-out: MIC90): ≤ 0.0625 µg/mL | MIC ([10]; Staphylococcus haemolyticus, S. haemolyticus, 32 clinical isolates, read-out: MIC Range): 0.0625 to 0.125 µg/mL (≈ 0.104 to 0.207 µM) | MIC [11]: 0.5 µg/mL (≈ 0.828 µM) | MIC [12]: 0.031 µg/mL (≈ 0.0514 µM) | MIC [13]: 0.125 µg/mL (≈ 0.207 µM) | MIC [14]: ≤ 0.0625 µg/mL | MIC [15]: 0.25 µg/mL (≈ 0.414 µM) | MIC [16]: ≤ 0.0625 µg/mL | MIC [17]: 0.5 µg/mL (≈ 0.828 µM) | MIC [18]: 0.25 µg/mL (≈ 0.414 µM) | Cumulative % of strains inhibited at MIC ([19]; MIC 0.125 µg/mL): 84.6% | No. of strains inhibited at MIC ([19]; MIC 0.125 µg/mL): 4 | Cumulative % of strains inhibited at MIC ([19]; MIC […]): 100.0% | No. of strains inhibited at MIC ([19]; MIC […]): 2 | Cumulative % of strains inhibited at MIC ([19]; MIC ≤[…]): 53.8% | No. of strains inhibited at MIC ([19]; MIC ≤[…]): 7 | MIC Range ([19]; S. pneumoniae, 13 clinical isolates): ≤0.0625 to 0.25 µg/mL | MIC50 ([19]; Streptococcus pneumoniae, S. pneumoniae, 13 clinical isolates, read-out: MIC50): ≤ 0.0625 µg/mL | MIC90 ([19]; Streptococcus pneumoniae, S. pneumoniae, 13 clinical isolates, read-out: MIC90): 0.25 µg/mL (≈ 0.414 µM) | Cumulative % of strains inhibited at MIC ([20]; MIC 0.125 µg/mL): 21.3% | No. of strains inhibited at MIC ([20]; MIC 0.125 µg/mL): 7 | Cumulative % of strains inhibited at MIC ([20]; MIC 0.5 µg/mL): 97.9% | No. of strains inhibited at MIC ([20]; MIC 0.5 µg/mL): 3 | Cumulative % of strains inhibited at MIC ([20]; MIC 1 µg/mL): 100.0% | No. of strains inhibited at MIC ([20]; MIC 1 µg/mL): 1 | Cumulative % of strains inhibited at MIC ([20]; MIC […]): 91.5% | No. of strains inhibited at MIC ([20]; MIC […]): 33 | Cumulative % of strains inhibited at MIC ([20]; MIC ≤[…]): 6.4% | No. of strains inhibited at MIC ([20]; MIC ≤[…]): 3 | fold higher activity than comparator agents ([20]; E. faecium clinical isolates): 16- to 128 fold | MIC Range ([20]; E. faecium, 47 clinical isolates): ≤0.0625 to 1 µg/mL | MIC50 ([20]; Enterococcus faecium, E. faecium, 47 clinical isolates, read-out: MIC50): 0.25 µg/mL (≈ 0.414 µM) | MIC90 ([20]; Enterococcus faecium, E. faecium, 47 clinical isolates, read-out: MIC90): 0.25 µg/mL (≈ 0.414 µM)
